Counter-ions that a name gives are not always drawn. Like-named read-outs stand apart in the source and are kept apart here.
Columns and labels:
human UM 92-1 cells = assay: Crystal violet proliferation assay in human UM 92-1 cells; format: cell-based; conditions: for effect alone on proliferation of human UM 92-1 cells: 2 μM; for effect on 92-1 cell proliferation compared to the vehicle control: VPA 2 mM, HP 10 μM, (±)-HP-mII 30 μM (predicted IC50 values)
Method: Then, actions on cell proliferation were examined by crystal violet staining (Figure 6).
HREC and human 92-1 cell (seeded 4 × 10^3 and grown for 24 h at optimum culture conditions) proliferation was measured using crystal violet staining after treatment in 96-well plates with the indicated concentrations of chemicals for an additional 48 h. Control cells received an equal volume of vehicle (DMSO). At the end of the treatment, each well was washed with phosphate-buffered saline (PBS). Following this, the cells were fixed (in 4% paraformaldehyde) and stained with crystal violet solution (0.5% in 20% methanol for HREC or 1% aqueous solution for 92-1 cells). Subsequently, the plate was washed with water and left to dry. Crystal violet staining was evaluated by measuring the absorbance at 570 nm or 590 nm, after crystal violet extraction with 10% acetic acid (at room temperature for 10 min), with a microplate reader with the plate reader (Synergy 2-BioTek). For quantification, each assay was carried out in triplicate.

inoperable UM patients = tested on: inoperable UM patients; parameters: method as in PMID 25315663, PMID 23218699, PMID 21880788; conditions: at 4 months; cited from earlier work
HREC = conditions: cited from earlier work
σ2 receptor = biological target: T1, σ2 receptor (Cavia porcellus, UniProt H0V073); conditions: guinea pig brain membranes; cited from earlier work
T1 construct: the guinea pig brain membranes (300 μL, 360 μg protein) were incubated for 120 min at room temperature with 3 nM [^3H]-DTG; from tissue; host or cells: guinea pig brain membranes
T1 sequence (H0V073 1-176): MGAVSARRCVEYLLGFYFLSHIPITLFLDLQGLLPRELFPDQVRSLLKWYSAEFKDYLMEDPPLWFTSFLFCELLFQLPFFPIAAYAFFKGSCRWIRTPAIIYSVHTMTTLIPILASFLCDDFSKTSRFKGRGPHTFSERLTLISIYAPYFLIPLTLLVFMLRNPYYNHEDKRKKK

Compound: c1ccc(CCN2CCCCC2)cc1 [AC927, 1-phenethylpiperidine, reference compound]
- effect alone on proliferation of human UM 92-1 cells (human UM 92-1 cells): promote

Compound: AFL: VEGF-trap aflibercept, a popular drug in ophthalmology
- progression-free survival (inoperable UM patients): 50%

Compound: CCCC(CCC)C(=O)O[C@@H](CCCN1CCC(O)(c2ccc(Cl)cc2)CC1)c1ccc(F)cc1 (as salt: oxalate) [(−)-1]
- melting point: 158 to 160 °C

Compound: CC(C)=CCN1CC[C@]2(C)c3cc(O)ccc3C[C@H]1[C@H]2C [PTZ, (+)-pentazocine, reference compound]
- effect alone on proliferation of human UM 92-1 cells (human UM 92-1 cells): promote

Compound: CCCC(CCC)C(=O)O [VPA, valproic acid]
- effect on 92-1 cell proliferation compared to the vehicle control (human UM 92-1 cells): significantly inhibited
- pIC50 ± SE, MTT viability test on HREC (HREC; 24 h): 2.91 ± 0.01
- pIC50 ± SE, MTT viability test on HREC (HREC; 48 h): 2.84 ± 0.03
- pIC50 ± SE, MTT viability test on HREC (HREC; 72 h): 2.86 ± 0.01

Compound: O[C@@H](CCCN1CCC(O)(c2ccc(Cl)cc2)CC1)c1ccc(F)cc1 [(−)-4]
- Ki (σ2 receptor): 9.8 ± 1.8 nM

Compound: CCCC(CCC)C(=O)O[C@H](CCCN1CCC(O)(c2ccc(Cl)cc2)CC1)c1ccc(F)cc1 (as salt: oxalate) [(+)-1]
- melting point: 159 to 164 °C

Compound: OC(CCCN1CCC(O)(c2ccc(Cl)cc2)CC1)c1ccc(F)cc1 (racemic) [(±)-HP-mII, haloperidol metabolite II]
- Ki (σ2 receptor): 2.4 ± 0.7 nM
- effect on 92-1 cell proliferation compared to the vehicle control (human UM 92-1 cells): significantly inhibited
- pIC50 ± SE, MTT viability test on HREC (HREC; 48 h): 3.89 ± 0.04
- pIC50 ± SE, MTT viability test on HREC (HREC; 72 h): 4.16 ± 0.03

From article PMC8474110 (Journal of Medicinal Chemistry, 2021)
